The values below come from patent US20190224195A1, “Oral Capsule Composite Formulation of Dutasteride and Tadalafil” (Yuyu Pharma, Inc., priority 2016, published 2019).

The nature of series [1]: Solubility test in various oils. In kind it is physicochemical. Conditions: for solubility at 24 h: oil or lipid, thermodynamic from solid; for solubility at 24 h / Solubility of Tadalafil: room temperature, 24 hours of stirring. Here is the method: Dutasteride and tadalafil were measured for solubility in various oils comprising soybean oil, castor oil, polyoxyl 6 apricot kernel oil, propyleneglycol monolaurate, propyleneglycol monocaprylate, glyceryl caprylate/caprate. In a 10-mL vial, 3 mL of an oil was stirred at room temperature with a magnetic bar during which about 100 mg of the main ingredient was added, followed by stirring at 500 rpm or higher. After 24 hours of stirring, centrifugation was carried out and the supernatant thus formed was taken and subjected to liquid chromatography to quantitate the main ingredient dissolved in the oil phase.

Series [2] can be described thus: Solubility test according to surfactant. In kind it is physicochemical. Conditions: for solubility according to surfactants (in words): in PEG 6 glyceryl caprylate/caprate and PEG 8 caprylic/capric glyceride; for solubility at 24 h: organic solvent or mixture, thermodynamic from solid.

≈ marks a conversion by molar mass, not a printed value.

For orientation: solubility means the concentration that dissolves in the medium under given conditions.

In the case of `C[C@]12C=CC(=O)N[C@@H]1CC[C@@H]1[C@@H]2CC[C@]2(C)[C@@H](C(=O)Nc3cc(C(F)(F)F)ccc3C(F)(F)F)CC[C@@H]12` [Dutasteride, 17β-N-(2,5-bis(trifluoromethyl))phenylcarbomoyl-4-aza-5α-androst-1-en-3-one], the solubility at 24 h in series [1] (in Castor oil, read-out: Solubility of Dutasteride) was 1500 µg/mL (≈ 2.84 mM); in series [1] (in Glyceryl caprylate/caprate, read-out: Solubility of Dutasteride), 14300 µg/mL (≈ 27.1 mM); in series [1] (in Polyoxyl 6 apricot kernel oil, read-out: Solubility of Dutasteride), 2550 µg/mL (≈ 4.82 mM); in series [1] (in Propylene glycol monocaprylate, read-out: Solubility of Dutasteride), 26300 µg/mL (≈ 49.7 mM); in series [2] (in PEG 6 glyceryl carpylate/caprate, read-out: Dutasteride Solubility) it was 3550 µg/mL (≈ 6.72 mM); in series [2] (in PEG 8 caprylic/capric glyceride, read-out: Dutasteride Solubility) it was 3860 µg/mL (≈ 7.3 mM). Also, the solubility at 24 h in series [2] (in PEG 35 castor oil, read-out: Dutasteride Solubility) was found to be 1990 µg/mL (≈ 3.77 mM); in series [2] (in Poloxamer 124, read-out: Dutasteride Solubility), 1120 µg/mL (≈ 2.12 mM); in series [2] (in Polysorbate 60, read-out: Dutasteride Solubility), 1770 µg/mL (≈ 3.35 mM); in series [2] (in Polysorbate 80, read-out: Dutasteride Solubility), 1360 µg/mL (≈ 2.57 mM). Besides, the “solubility according to surfactants (in words)” value in series [2] is “high solubility”.
As for `CN1CC(=O)N2[C@H](c3ccc4c(c3)OCO4)c3[nH]c4ccccc4c3C[C@@H]2C1=O` [Tadalafil, 6R-trans-6-(1,3-benzodioxol-5-yl)-2,3,6,7,12,12a-hexahydro-2-methyl-pyrazino [1′,2′:1,6]pyrido[3,4-b]indole-1,4-dione], the “Solubility of Tadalafil” value came to 4130 µg/mL in series [1] (in Glyceryl caprylate/caprate) and 1120 µg/mL in series [1] (in Polyoxyl 6 apricot kernel oil). Moreover, the “fold greater solubility than the other oils” value in series [1] (in glyceryl caprylate/caprate and propylene glycol monocaprylate versus castor oil, soybean oil, polyoxyl 6 apricot kernel oil) is reported as not below 4 fold. Also, the solubility at 24 h in series [1] (in Propylene glycol monocaprylate, read-out: Solubility of Tadalafil) was 4610 µg/mL (≈ 11.8 mM); in series [2] (in PEG 6 glyceryl carpylate/caprate, read-out: Tadalafil Solubility), 9130 µg/mL (≈ 23.4 mM); in series [2] (in PEG 8 caprylic/capric glyceride, read-out: Tadalafil Solubility), 8810 µg/mL (≈ 22.6 mM); in series [2] (in PEG 35 castor oil, read-out: Tadalafil Solubility) it was 8100 µg/mL (≈ 20.8 mM); in series [2] (in Poloxamer 124, read-out: Tadalafil Solubility), 6230 µg/mL (≈ 16 mM); in series [2] (in Polysorbate 60, read-out: Tadalafil Solubility) it was 10700 µg/mL (≈ 27.6 mM). Besides, the solubility at 24 h in series [2] (in Polysorbate 80, read-out: Tadalafil Solubility) was 9650 µg/mL (≈ 24.8 mM). In addition, in series [2], the “solubility according to surfactants (in words)” value is reported as “high solubility”.
